{"source": "patent US10632324B2", "about": "“Method for the treatment of skin tissues” (9127-4910 Quebec Inc., priority 2017, dated 2020)", "test_system": "inflammatory acne", "assay": "Randomized, controlled, rater-blinded split face/back trial of IR pre-treatment plus ALA-PDT vs ALA-PDT alone (Example 9)", "type": "in vivo, human", "details": "for Change from Baseline in Lesion Counts, Closed comedones, Median / Change from Baseline in Lesion Counts, Nodules, Median / Change from Baseline in Lesion Counts, Open comedones, Median / Change from Baseline in Lesion Counts, Papules, Median / Change from Baseline in Lesion Counts, Pustules, Median / Change from Baseline in Lesion Counts, Total Noninflammatory lesions, Median: week 4; for Change from Baseline in Lesion Counts, Total Inflammatory lesions, Median: week 4 (reduction); for Clinical Global Severity Assessment at Week-4, Median: six-point scale, grade 0 clear to 5 very severe (Table 1)", "method": "One side was pre-treated for 15 minutes with radiant IR light emitting diode (LED) (970 nm), while the other side was used as control. ALA was then applied after which PDT LED (630 nm) was performed on the entire face or back surface. Blinded lesion counts and clinical global assessment of severity were performed based on digital photographs before and four weeks after the PDT procedure.\nInclusion criteria included patients with skin type I to III according to the Fitzpatrick Classification System [^xxviii]. Exclusion criteria comprised patients taking cortisone (Prednisone), anticoagulant therapy, or any drug known to increase photosensitivity. In addition, during the 12 months preceding the study, patients were required not to have used isotretinoin (Accutane), or applied topical steroids on the site to be treated. Moreover, oral antibiotics use, laser or topical anti-acne medication at the to-be-treated site were not permitted for eight weeks prior to the study. Patients gave written informed consent to participate in this trial in compliance with the US Code of Federal Regulations dealing with the conduct of clinical studies (21 CFR including parts 50 and 56 concerning informed consent and IRB regulations). The study was conducted according to Good Clinical Practice Guidelines and the principles of the Declaration of Helsinki, and was approved by the Institutional Review Board Services (Div. 1373737 Toronto, Canada).\nPatients were assigned to a split face or split back group to allow for within-patient assessments of clinical effects. Assignment was based on the patient's problem area. One side was randomly (using a coin flip) assigned to receive IR pre-treatment and ALA-PDT, and the other ALA-PDT alone to serve as control. The IR pre-treatment consisted of a 15 minute exposure to radiant IR LED at 970 nm ([…] using the LumiPhase-R/IR™, OPUSMED Inc. Montreal, Canada) to reach peak H2O absorption inside-out temperature of 45° C. Papillary dermis temperature was monitored with a needle probe throughout the session and up to 40 minutes (Type-T thermocouple, Omega, Montreal, Canada). ALA (20% Levulan Kerastick, DUSA Pharmaceuticals, USA) was then applied on both sides for 60 minutes, after which PDT with LED at 630 nm (50 mW/cm^2, 70 J/cm^2) was performed on the entire face or back surface for a duration of 23 minutes (LumiPhase-R/B™, OPUSMED Inc. Montreal, Canada). No cooling method was used. Digital photographs (Canon Dual Flash EOS 10D, Canon, Tokyo, Japan with EX SIGMA 50 mm 1:2.8 macro lens, Sigma, Aizu, Japan) were taken prior to and four weeks after the procedure. Each photograph was taken maintaining identical ambient lighting, pose and camera angles.\nAcne lesion counts were performed before and four weeks after the PDT treatment. All types of inflammatory (papules, pustules, nodules) and noninflammatory (open and closed comedones) acne lesions were counted. Lesion counts were performed based on the digital photographs by two non-treating physicians who were blinded to the treatment regimen (IR-treated or control side) and to the timing of the photographs (baseline or post-treatment).\nThe global severity of acne was assessed at the end of the study by the […] non-treating physicians, as described above, using a six-point rating scale (Table 1). Clinical success was defined by grades 0 (clear) or 1 (almost clear).\nAdverse reactions were monitored throughout the study. Signs of erythema, oedema, scaling/crusting, bronzing, textural changes, hyperpigmentation, and hypopigmentation were documented during the time period of the clinical trial.\nCronbach's alpha was calculated to assess inter-rater reliability in assessments. Reliability was deemed acceptable if Cronbach alpha was […] allowing raters' assessments to be combined for analysis. The primary outcome variable was the percent change from baseline in inflammatory lesion count measured four weeks post-treatment. […]", "note": "Values joined by “and” are separate entries in the source; they are usually repeats but may differ in a detail not shown here. Equal entries are not always repeated. “Also recorded” adds a separate entry of the source."}
{"smiles": "NCC(=O)CCC(=O)O", "note": "[5-ALA, 5-aminolevulinic acid]", "values": [{"measurement": "Change from Baseline in Lesion Counts, Closed comedones, Median", "setting": "Control side (ALA-PDT alone)", "value": 0.00, "unit": "%"}, {"measurement": "Change from Baseline in Lesion Counts, Nodules, Median", "setting": "Control side (ALA-PDT alone)", "value": 20.00, "unit": "%"}, {"measurement": "Change from Baseline in Lesion Counts, Open comedones, Median", "setting": "Control side (ALA-PDT alone)", "value": 0.00, "unit": "%"}, {"measurement": "Change from Baseline in Lesion Counts, Papules, Median", "setting": "Control side (ALA-PDT alone)", "value": 38.10, "unit": "%"}, {"measurement": "Change from Baseline in Lesion Counts, Pustules, Median", "setting": "Control side (ALA-PDT alone)", "value": 0.00, "unit": "%"}, {"measurement": "Change from Baseline in Lesion Counts, Total Noninflammatory lesions, Median", "setting": "Control side (ALA-PDT alone)", "value": 0.00, "unit": "%"}, {"measurement": "Change from Baseline in Lesion Counts, Total Inflammatory lesions, Median", "setting": "Control side (ALA-PDT alone), listed as ALA", "value": "38% and 37.86%"}, {"measurement": "Clinical Global Severity Assessment at Week-4, Median", "setting": "Control side", "value": 2}, {"measurement": "treatment-related adverse effects / tolerability", "setting": "IR pre-treatment + ALA-PDT and ALA-PDT alone, listed as ALA", "value": "No unusual treatment-related adverse effects were observed; also recorded: overall well tolerated"}, {"measurement": "Clinical Global Severity Assessment at Week-4, Median", "setting": "IR-Treated side", "value": 1}, {"measurement": "Change from Baseline in Lesion Counts, Closed comedones, Median", "setting": "IR-Treated side", "value": 0.00, "unit": "%"}, {"measurement": "Change from Baseline in Lesion Counts, Nodules, Median", "setting": "IR-Treated side", "value": 100.00, "unit": "%"}, {"measurement": "Change from Baseline in Lesion Counts, Open comedones, Median", "setting": "IR-Treated side", "value": 0.00, "unit": "%"}, {"measurement": "Change from Baseline in Lesion Counts, Papules, Median", "setting": "IR-Treated side", "value": 75.00, "unit": "%"}, {"measurement": "Change from Baseline in Lesion Counts, Pustules, Median", "setting": "IR-Treated side", "value": 37.65, "unit": "%"}, {"measurement": "Change from Baseline in Lesion Counts, Total Noninflammatory lesions, Median", "setting": "IR-Treated side", "value": 0.00, "unit": "%"}, {"measurement": "Change from Baseline in Lesion Counts, Total Inflammatory lesions, Median", "setting": "IR-Treated side, listed as ALA", "value": "73% and 73.21%"}, {"measurement": "clinical success rate (almost clear or clear categories)", "setting": "IR-treated side, week-4", "value": 78, "unit": "%"}, {"measurement": "additional benefit of IR-treated side in inflammatory lesion count reduction", "setting": "IR-treated vs control side, week-4", "value": 35, "unit": "%"}, {"measurement": "clinical success rate (almost clear or clear categories)", "setting": "control side, week-4", "value": 44, "unit": "%"}, {"measurement": "time until slight erythema post-PDT disappeared", "setting": "most patients", "value": "≤ 48", "unit": "h"}, {"measurement": "duration of acneiform folliculitis", "setting": "two patients", "value": "3 to 4", "unit": "days"}]}
